# Source: PubChem BioAssay (NCI)
#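 Five compound concentrations were applied to cells in 96-well plates for 48 hours; endpoints were derived by simple linear interpolation of the resulting dose-response curve. GI50 is the concentration that inhibits growth by half. TGI marks complete inhibition of growth.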
# Tests used:
# Experiment in all cases: growth of human tumour cells (NCI), 48 h
# NCI-H522 lung = test system: NCI-H522 lung
# NCI/ADR-RES ovarian = test system: NCI/ADR-RES ovarian
# EKVX NSCLC = test system: EKVX NSCLC
# CCRF-CEM leukemia = test system: CCRF-CEM leukemia
# SK-OV-3 ovarian = test system: SK-OV-3 ovarian
# OVCAR-4 ovarian = test system: OVCAR-4 ovarian
# MCF7 breast = test system: MCF7 breast
# HOP-62 NSCLC = test system: HOP-62 NSCLC
# NCI-H226 lung = test system: NCI-H226 lung
# CAKI-1 renal = test system: CAKI-1 renal
# SNB-19 CNS = test system: SNB-19 CNS
# HT29 colon = test system: HT29 colon
# KM12 colon = test system: KM12 colon
# SNB-75 CNS = test system: SNB-75 CNS
# IGROV1 ovarian = test system: IGROV1 ovarian
# RXF 393 renal = test system: RXF 393 renal
# COLO 205 colon = test system: COLO 205 colon
# MDA-MB-231 breast = test system: MDA-MB-231 breast
# SF-295 CNS = test system: SF-295 CNS
# HOP-92 NSCLC = test system: HOP-92 NSCLC
# SW-620 colon = test system: SW-620 colon
# HS 578T breast = test system: HS 578T breast
# MALME-3M melanoma = test system: MALME-3M melanoma
# NCI-H23 lung = test system: NCI-H23 lung
# OVCAR-8 ovarian = test system: OVCAR-8 ovarian
# A549 NSCLC = test system: A549 NSCLC
# MDA-MB-435 = test system: MDA-MB-435
# NCI-H460 lung = test system: NCI-H460 lung
# SK-MEL-2 melanoma = test system: SK-MEL-2 melanoma
# OVCAR-3 ovarian = test system: OVCAR-3 ovarian
# PC-3 prostate = test system: PC-3 prostate
# M14 melanoma = test system: M14 melanoma
# DU-145 prostate = test system: DU-145 prostate
# SN12C renal = test system: SN12C renal
# SK-MEL-5 melanoma = test system: SK-MEL-5 melanoma
# SK-MEL-28 melanoma = test system: SK-MEL-28 melanoma
# MOLT-4 leukemia = test system: MOLT-4 leukemia
# T-47D breast = test system: T-47D breast
# SF-539 CNS = test system: SF-539 CNS
# UACC-257 melanoma = test system: UACC-257 melanoma
# SR leukemia = test system: SR leukemia
# RPMI-8226 leukemia = test system: RPMI-8226 leukemia
# 786-0 renal = test system: 786-0 renal
# UO-31 renal = test system: UO-31 renal
# ACHN renal = test system: ACHN renal
# U251 CNS = test system: U251 CNS
# OVCAR-5 ovarian = test system: OVCAR-5 ovarian
# K-562 leukemia = test system: K-562 leukemia
# UACC-62 melanoma = test system: UACC-62 melanoma
# BT-549 breast = test system: BT-549 breast
# HL-60(TB) leukemia = test system: HL-60(TB) leukemia
# HCT-15 colon = test system: HCT-15 colon
# SF-268 CNS = test system: SF-268 CNS
# HCT-116 colon = test system: HCT-116 colon
# LOX IMVI melanoma = test system: LOX IMVI melanoma
# TK-10 renal = test system: TK-10 renal
structure (smiles),measurement,setting,value
N#CC1=C(N)NC(=O)C(C#N)C12Nc1ccccc1S2 (configuration not stated),GI50,NCI-H522 lung,19.1 µM
same,TGI,NCI-H522 lung,60.5 µM
same,GI50,NCI/ADR-RES ovarian,94.9 µM
same,TGI,NCI/ADR-RES ovarian,> 100 µM
same,GI50,EKVX NSCLC,> 100 µM
same,TGI,EKVX NSCLC,> 100 µM
same,GI50,CCRF-CEM leukemia,> 100 µM
same,TGI,CCRF-CEM leukemia,> 100 µM
same,GI50,SK-OV-3 ovarian,66.6 µM
same,TGI,SK-OV-3 ovarian,> 100 µM
same,GI50,OVCAR-4 ovarian,> 100 µM
same,TGI,OVCAR-4 ovarian,> 100 µM
same,GI50,MCF7 breast,32.7 µM
same,TGI,MCF7 breast,> 100 µM
same,GI50,HOP-62 NSCLC,> 100 µM
same,TGI,HOP-62 NSCLC,> 100 µM
same,GI50,NCI-H226 lung,41.3 µM
same,TGI,NCI-H226 lung,> 100 µM
same,GI50,CAKI-1 renal,> 100 µM
same,TGI,CAKI-1 renal,> 100 µM
same,GI50,SNB-19 CNS,90.5 µM
same,TGI,SNB-19 CNS,> 100 µM
same,GI50,HT29 colon,> 100 µM
same,TGI,HT29 colon,> 100 µM
same,GI50,KM12 colon,82 µM
same,TGI,KM12 colon,> 100 µM
same,GI50,SNB-75 CNS,> 100 µM
same,TGI,SNB-75 CNS,> 100 µM
same,GI50,IGROV1 ovarian,18 µM
same,TGI,IGROV1 ovarian,88.4 µM
same,GI50,RXF 393 renal,20.4 µM
same,TGI,RXF 393 renal,> 100 µM
same,GI50,COLO 205 colon,89.9 µM
same,TGI,COLO 205 colon,> 100 µM
same,GI50,MDA-MB-231 breast,29.8 µM
same,TGI,MDA-MB-231 breast,> 100 µM
same,GI50,SF-295 CNS,50.6 µM
same,TGI,SF-295 CNS,> 100 µM
same,GI50,HOP-92 NSCLC,74 µM
same,TGI,HOP-92 NSCLC,> 100 µM
same,GI50,SW-620 colon,> 100 µM
same,TGI,SW-620 colon,> 100 µM
same,GI50,HS 578T breast,43.2 µM
same,TGI,HS 578T breast,> 100 µM
same,GI50,MALME-3M melanoma,64 µM
same,TGI,MALME-3M melanoma,> 100 µM
same,GI50,NCI-H23 lung,41.2 µM
same,TGI,NCI-H23 lung,> 100 µM
same,GI50,OVCAR-8 ovarian,91.3 µM
same,TGI,OVCAR-8 ovarian,> 100 µM
same,GI50,A549 NSCLC,> 100 µM
same,TGI,A549 NSCLC,> 100 µM
same,GI50,MDA-MB-435,> 100 µM
same,TGI,MDA-MB-435,> 100 µM
same,GI50,NCI-H460 lung,> 100 µM
same,TGI,NCI-H460 lung,> 100 µM
same,GI50,SK-MEL-2 melanoma,40.7 µM
same,TGI,SK-MEL-2 melanoma,> 100 µM
same,GI50,OVCAR-3 ovarian,32.6 µM
same,TGI,OVCAR-3 ovarian,> 100 µM
same,GI50,PC-3 prostate,60.4 µM
same,TGI,PC-3 prostate,> 100 µM
same,GI50,M14 melanoma,87.9 µM
same,TGI,M14 melanoma,> 100 µM
same,GI50,DU-145 prostate,> 100 µM
same,TGI,DU-145 prostate,> 100 µM
same,GI50,SN12C renal,> 100 µM
same,TGI,SN12C renal,> 100 µM
same,GI50,SK-MEL-5 melanoma,> 100 µM
same,TGI,SK-MEL-5 melanoma,> 100 µM
same,GI50,SK-MEL-28 melanoma,> 100 µM
same,TGI,SK-MEL-28 melanoma,> 100 µM
same,GI50,MOLT-4 leukemia,95.8 µM
same,TGI,MOLT-4 leukemia,> 100 µM
same,GI50,T-47D breast,> 100 µM
same,TGI,T-47D breast,> 100 µM
same,GI50,SF-539 CNS,> 100 µM
same,TGI,SF-539 CNS,> 100 µM
same,GI50,UACC-257 melanoma,39.9 µM
same,TGI,UACC-257 melanoma,> 100 µM
same,GI50,SR leukemia,52.4 µM
same,TGI,SR leukemia,> 100 µM
same,GI50,RPMI-8226 leukemia,43.2 µM
same,TGI,RPMI-8226 leukemia,> 100 µM
same,GI50,786-0 renal,> 100 µM
same,TGI,786-0 renal,> 100 µM
same,GI50,UO-31 renal,> 100 µM
same,TGI,UO-31 renal,> 100 µM
same,GI50,ACHN renal,> 100 µM
same,TGI,ACHN renal,> 100 µM
same,GI50,U251 CNS,> 100 µM
same,TGI,U251 CNS,> 100 µM
same,GI50,OVCAR-5 ovarian,> 100 µM
same,TGI,OVCAR-5 ovarian,> 100 µM
same,GI50,K-562 leukemia,48.8 µM
same,TGI,K-562 leukemia,> 100 µM
same,GI50,UACC-62 melanoma,60.5 µM
same,TGI,UACC-62 melanoma,> 100 µM
same,GI50,BT-549 breast,69.9 µM
same,TGI,BT-549 breast,> 100 µM
same,GI50,HL-60(TB) leukemia,91.6 µM
same,TGI,HL-60(TB) leukemia,> 100 µM
same,GI50,HCT-15 colon,> 100 µM
same,TGI,HCT-15 colon,> 100 µM
same,GI50,SF-268 CNS,> 100 µM
same,TGI,SF-268 CNS,> 100 µM
same,GI50,HCT-116 colon,59.4 µM
same,TGI,HCT-116 colon,> 100 µM
same,GI50,LOX IMVI melanoma,80.1 µM
same,TGI,LOX IMVI melanoma,> 100 µM
same,GI50,TK-10 renal,38.9 µM
same,TGI,TK-10 renal,> 100 µM
